Source: EP0972764A1, “Aminoalcohols and aminoketones as CNS active agents” (Universita Degli Studi di Firenze, priority 1998, dated 2000)

Columns and labels:
D2 (Dopamine) receptors = biological target: T1, D2 (Dopamine) receptors (Rattus norvegicus, UniProt P61169); test: In vitro inhibition of 3H-spiperone binding, D2 assay (rat brain membranes)
T1 construct: preparation of rat brain membrane enriched in D2 (Dopamine) or S2 (Serotonine) receptors; from tissue; host or cells: rat brain membranes
Method: The compounds I, prepared according to the present invention, were tested in vitro on preparation of rat brain membrane enriched in D2 (Dopamine) or S2 (Serotonine) receptors accordingly known methods to perform inhibition experiments of the binding of ^3H-receptors ligands.
For the D2 assays the method described by Ferretti et al. (Life Sci 42(24):2457-65, 1988) was used.

[1] = biological target: T2, S2 (Serotonine) receptors (Rattus norvegicus, UniProt P14842); test: In vitro inhibition of 3H-spiperone binding, S2 assay (rat brain membranes)
T2 construct: preparation of rat brain membrane enriched in D2 (Dopamine) or S2 (Serotonine) receptors; from tissue; host or cells: rat brain membranes
Method: The compounds I, prepared according to the present invention, were tested in vitro on preparation of rat brain membrane enriched in D2 (Dopamine) or S2 (Serotonine) receptors accordingly known methods to perform inhibition experiments of the binding of ^3H-receptors ligands. For the S2 receptor assay the method described by List and Seeman (List S.J. and Seeman P. Proc. Natl. Acad. Sci. USA. 78:2620-2624, 1981) was used with slight adaptations.

[2] = First pass cerebral extraction in the rat (blood brain barrier crossing of radiolabelled compound); assay type: in vivo; conditions: intracardiac injection, physiological rCBF range 0.8-1 ml/min/g
Method: Compounds I, prepared according to the present invention and containing radioactive isotopes were tested inrespect of their capacity to cross the brain blood barrier, since CNS receptors tracers should be able to pass through the intact blood brain barrier following intravenous injection.
Measures of the rat brain extraction of the compounds was determined following known procedures based on the use of labelled reference substances with known extraction.
In the rat the first pass cerebral extraction of N-benzyl-3-(4-fluoro-2-^125I-iodo-fenil)-hydroxypropylamine [compound I with R1 = H and R2 = Benzyl, Q = single bond Wn = 2-^125I, 4-F, n = 2, A = OH, m = 0, a = single bond] was evaluated measuring the radioactive compounds concentration in the brain, after an intracardiac injection of a mixture of the tested compound, a completely extracted tracer, as the albumin microspheres labelled with ^99mTc (undergoing to a sort of entrapment in the brain microvasculature) and a non extracted tracer as the sodium salt of hortoiodoippuric acid.

T1 sequence (P61169 whole entry): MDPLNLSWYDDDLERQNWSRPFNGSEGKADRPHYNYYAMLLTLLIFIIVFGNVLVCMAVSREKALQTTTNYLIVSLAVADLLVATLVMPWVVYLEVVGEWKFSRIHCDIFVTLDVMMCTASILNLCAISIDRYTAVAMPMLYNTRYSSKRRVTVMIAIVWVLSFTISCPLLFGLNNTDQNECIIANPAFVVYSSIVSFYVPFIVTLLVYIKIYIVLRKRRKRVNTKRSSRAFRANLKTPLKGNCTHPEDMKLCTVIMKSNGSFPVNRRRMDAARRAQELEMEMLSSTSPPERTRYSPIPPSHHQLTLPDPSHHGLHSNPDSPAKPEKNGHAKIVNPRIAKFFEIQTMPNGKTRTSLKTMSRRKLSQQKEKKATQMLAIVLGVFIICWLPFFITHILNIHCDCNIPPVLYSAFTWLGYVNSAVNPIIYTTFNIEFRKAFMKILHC
T2 sequence (P14842 whole entry): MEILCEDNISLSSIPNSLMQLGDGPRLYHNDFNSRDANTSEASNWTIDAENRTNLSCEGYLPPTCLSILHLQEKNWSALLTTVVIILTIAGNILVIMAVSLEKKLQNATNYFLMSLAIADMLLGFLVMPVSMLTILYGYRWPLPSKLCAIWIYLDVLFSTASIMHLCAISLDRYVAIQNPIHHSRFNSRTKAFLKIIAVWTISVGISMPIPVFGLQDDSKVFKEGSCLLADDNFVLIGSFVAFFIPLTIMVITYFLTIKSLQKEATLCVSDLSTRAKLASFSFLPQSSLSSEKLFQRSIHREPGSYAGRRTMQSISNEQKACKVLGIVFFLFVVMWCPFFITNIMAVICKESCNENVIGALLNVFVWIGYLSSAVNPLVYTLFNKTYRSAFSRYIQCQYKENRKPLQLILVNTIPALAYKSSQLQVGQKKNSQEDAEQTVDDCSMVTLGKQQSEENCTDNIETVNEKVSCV

With “2-[3-(4-fluorophenyl)-3-oxopropyl]-tetrahydro-2H-isoindole” the “binding affinity towards D2 receptors (column D2)” value (D2 (Dopamine) receptors; compounds at 10 µM concentration, rat brain membrane, unit not given) was 12 and the “binding affinity, column T1” value ([1]; compounds at 10 µM concentration, rat brain membrane, unit not given, column head T1, text says S2) was 65.

Compound OC(CCNCc1ccccc1)c1ccc(F)cc1Br (racemic) [N-benzyl-3-(2-bromo-4-fluorophenyl)-3-hydroxypropylamine] has an IC50 (D2 (Dopamine) receptors; inhibition of ^3H-spiperone binding, D2 assay, tested in its racemic form) of 34 µM and an IC50 ([1]; inhibition of ^3H-spiperone binding, S2 assay, tested in its racemic form) of 18.7 µM.

For OC(CCNCc1ccccc1)c1ccc(F)cc1[125I] (centres unmarked) [N-benzyl-3-(4-fluoro-2-^125I-iodo-fenil)-hydroxypropylamine], the “cerebral tissue extraction fraction” value [2] was “about 50%”.
